Measured values from US20100069319A1, “Mercaptopurine derivatives and uses thereof” (priority 2007, published 2010).

Columns and labels:
B-CLL cells = test: Apoptosis by Annexin-Cy5 FACS analysis; assay type: cell-based, human; settings: 16 h
Procedure: Apoptosis analysis in B-CLL cells treated with 6-MP derivatives at different concentration (16 h, at 37° C.) was done by FACS analysis. B-CLL cells were incubated with FITC-CD19 anti-human antibodies (Becton Dickinson, NJ, USA) for 20 minutes at 4° C. After washing off the unbound antibodies, samples were incubated with 5 μl Annexin-Cy5 (Pharmingen, San Diego, Calif., USA) in 10 mM HEPES pH 7.4 buffer containing 140 mM NaCl and 2.5 mM CaCl2, (HBS) for 10 minutes at room temperature. Subsequently, unbound Annexin was washed out and the samples were analyzed using FACScan analyzer (Becton-Dickinson, NJ, USA). The lymphocytes were counted and gated according to their size in forward and side scatters.
The slight decrease in viability of B-CLL human peripheral blood mononuclear cells (PBMC) upon incubation in the presence of 6-MP or SA-6MP was further investigated. B-CLL cells were treated with various concentrations of either 6-MP or SA-6MP and were subjected to flow cytometry analysis, as described in Materials and Methods, in order to monitor cells undergoing apoptosis.

[1] = system: human peripheral blood mononuclear cells (PBMCs); settings: after 4 days of treatment, read-out: IC50, T-cell mitogen-induced blastogenesis; cited from earlier work
Daudi cells [2] = test: XTT cell proliferation assay; assay type: cell-based; settings: 16 h
Procedure: (§1) Cell proliferation was determined by the XTT viability assay in 96-well plates, based on the reduction of tetrazolium salt to soluble formazan compounds by living cells. Cells (10,000-15,000 cells/well) were seeded in a 96-well plate. After 16 h incubation with various concentrations of 6-MP, 6-MPR and their S-allylthio-derivatives, 50 μl of XTT/PMS mixture (50 μM PMS, 0.1% XTT in medium) was added onto the cells. After an incubation period of 3-4 h at 37° C. the absorbance of the samples was measured in an ELISA Reader at 450 nm. SDS (1%, 10 μl/well) was added to reference wells before adding the XTT/PMS solution.
The inhibitory effects of the various prodrugs on Daudi leukemia cell and on monolayer N87 cells were compared. […] XTT was added to the wells for 3 h at 37° C. Cell viability was monitored using an ELISA reader at 450 nm, as described in Materials and Methods.

Daudi = test: Anti-proliferative concentration IC50 (Table 2); assay type: cell-based; settings: Homo sapiens, 16 h, tested at 0-100 μM, read-out: Anti-proferative concentration - IC50 (mean ± SE)
Procedure: as §1
(§2) The results of viability and proliferation were expressed as mean values±SD (n=3-6). For each cell line, the results were analyzed using two-way analysis of variance (ANOVA) followed by Bonferroni's posttest for the factors of the drugs used and their various concentrations, considering p<0.05 as significant. IC50 values (mean±SEM) were obtained from the linear range of the viability curve versus drug concentration (XTT assay).
(§3) In particular, cell in suspension, namely, Daudi, HL-60, U937, Molt-4, Jurkat and B-CLL, were tested at prodrug concentration of 0-100 μM, and monolayer cells, namely, Hela HtTA-1, MDR HT-29 and N87, were tested at prodrug concentration of 0-200 μM. in both cases, cell viability was determined by trypan blue dye exclusion assay. Data are presented in Table 2 hereinbelow for 6MP derivatives-treated for 16 h.

Molt-4 = test: Anti-proliferative concentration IC50 (Table 2); assay type: cell-based; settings: Homo sapiens; Molt-4, 16 h, tested at 0-100 μM; read-out: Anti-proferative concentration - IC50 (mean ± SE)
Procedure: as §1, §2, §3

B-CLL = test: Anti-proliferative concentration IC50 (Table 2); assay type: cell-based; settings: Homo sapiens, 16 h, tested at 0-100 μM, read-out: Anti-proferative concentration - IC50 (mean ± SE)
Procedure: as §1, §2, §3

MDR HT-29 cells = test: Cell death assessment by PI staining, phase-contrast and fluorescence microscopy; assay type: cell-based, human; settings: MDR HT-29, 150 μM, 16 h
Procedure: (§4) Cell death was monitored by trypan blue dye exclusion test or propidium iodide (PI) incorporation. Treated cells were incubated with PI (2 μg/ml) for 20 min at 37° C., washed with HBS and examined by fluorescence microscopy or analyzed by flow cytometry using fluorescence-activated cell sorting (Becton Dickinson FACScan Instrument using CellQuest software (BD Bioscience, San Jose, Calif.). Monolayer cells were trypsinized and washed with HBS before FACS analysis.
In order to determine the toxic effect of 6-MP and SA-6MP on multidrug resistant cell lines, MDR HT-29 cells were treated for 16 h with 150 μM of either 6-MP or SA-6MP for 16 h, and were then stained with PI.

Daudi cells [3] = test: Cell death by trypan blue dye exclusion / PI; assay type: cell-based; settings: 16 h
Procedure: as §4
In parallel, the trypan blue dye exclusion test was used to assess cell death. In particular, different concentrations of 6MP and SA-6MP were applied to various cell cultures (Daudi and Hela cells, each at 30,000 cells/well) as described in Materials and Methods. The cells were stained with trypan blue to monitor the lethal effect of several concentrations of the tested conjugates as the percentage of dead cells. As shown in FIG. 3A-3D, cell death induced by 6-MP and SA-6MP was both concentration and cell type dependent. […] SA-6MP at concentrations higher than 150 μM reduced the residual viability to 75% (FIG. 3D).

HL-60 = test: Anti-proliferative concentration IC50 (Table 2); assay type: cell-based, human; settings: Homo sapiens; HL-60, 16 h, tested at 0-100 μM; read-out: Anti-proferative concentration - IC50 (mean ± SE)
Procedure: as §1, §2, §3

N87 = test: Anti-proliferative concentration IC50 (Table 2); assay type: cell-based, human; settings: Homo sapiens; N87, 16 h, tested at 0-200 μM; read-out: Anti-proferative concentration - IC50 (mean ± SE)
Procedure: as §1, §2, §3

Question: For `Sc1ncnc2nc[nH]c12` [6-MP, 6-Mercaptopurine, reference compound], which “percent of apoptotic cells” value (B-CLL cells; 0-150 μM) is on record?
Answer: no significant increase in the percent of apoptotic cells

Question: And the IC50 [1]?
Answer: 0.149 ± 0.125 µM

Question: What about the “cell proliferation” value (Daudi cells [2]; 0-100 μM) of the same compound?
Answer: no significant loss of cell proliferation

Question: What about the IC50 (Daudi) of the same compound?
Answer: > 200 µM

Question: What about the IC50 (Molt-4) of the same compound?
Answer: 50.5 ± 6.1 µM

Question: And the IC50 (B-CLL)?
Answer: > 900 µM

Question: And the “epithelial-like growth / cell death” value (MDR HT-29 cells)?
Answer: no inhibition was observed

Question: And the “effect on cell viability” value (Daudi cells [3]; concentrations higher than 100 μM)?
Answer: no significant effect on cell viability

Question: For `C=CCSSc1ncnc2nc[nH]c12` [SA-6MP, S-allylthio-6-mercaptopurine], which “percent of apoptotic cells” value (B-CLL cells; 50 μM) is on record?
Answer: 38%

Question: And the “percent of apoptotic cells” value (B-CLL cells; 100 μM)?
Answer: 95%

Question: What about the residual proliferation (Daudi cells [2]; 50 μM) of the same compound?
Answer: 15-30%

Question: And the IC50 (HL-60)?
Answer: 42 ± 3.8 µM

Question: What about the IC50 (N87) of the same compound?
Answer: 70.5 ± 8.5 µM

Question: What about the IC50 (Daudi) of the same compound?
Answer: 38.3 ± 3.9 µM

Question: What about the IC50 (Molt-4) of the same compound?
Answer: 8.9 ± 1.2 µM

Question: What about the IC50 (B-CLL) of the same compound?
Answer: 129 ± 14.2 µM

Question: And the “epithelial-like growth / cell death” value (MDR HT-29 cells)?
Answer: epithelial-like growth was inhibited

Question: And the viability at 50 µM (Daudi cells [3]; Homo sapiens, 50 μM, read-out: residual viability)?
Answer: ~20%
